Measured values taken from patent publication US7521540B2, “CYR61 compositions and methods” (Munin Corporation, priority 1996, dated 2009).

Experiments:
HUVE cells = test: Thymidine incorporation (mitogen potentiation), HUVE cells; assay type: cell-based, human
Protocol: Human umbilical vein endothelial cells were plated essentially as described above for 3T3 cells and exposed to a constant amount of murine Cyr61; controls received no Cyr61. Different plates were then exposed to different levels of bFGF, comprising a series of bFGF concentrations ranging from 0-10 ng/ml. […] At 1 ng/ml bFGF, however, HUVE cells increased their thymidine incorporation in the presence of bFGF to 6×10^2 cpm; in the presence of 1 ng/ml bFGF and murine Cyr61, HUVE cells incorporated 1.3×10^3 cpm. At 10 ng/ml bFGF, cells exposed to bFGF incorporated about 1.8×10^3 cpm thymidine; cells receiving 10 ng/ml bFGF and Cyr61 incorporated approximately 6.1×10^3 cpm.
The capacity of murine Cyr61 to potentiate the mitogenic activity of bFGF was verified by a thymidine incorporation assay involving HUVE cells and various combinations of bFGF, Cyr61, and anti-Cyr61 antibodies. Cells were plated and grown as described above. The following combinations of supplements (final plate concentrations noted parenthetically) were then pre-incubated for 1 hour before addition to individual plates: 1) pre-immune antiserum (3%); 2) bFGF (15 ng/ml) and pre-immune antiserum (3%); 3) pre-immune antiserum (3%) and Cyr61 (4 μg/ml); 4) pre-immune antiserum (3%), Cyr61 (4 μg/ml), and bFGF (15 ng/ml); 5) anti-Cyr61 antiserum (3%); 6) anti-Cyr61 antiserum and bFGF (15 ng/ml); 7) anti-Cyr61 antiserum (3%) and Cyr61 (4 μg/ml); and 8) anti-Cyr61 antiserum (3%), Cyr61 (4 μg/ml), and bFGF (15 ng/ml).
DNA synthesis for HUVE cells and NIH 3T3 fibroblasts was measured by thymidine incorporation as described previously (Kireeva et al., [1996]) with minor modifications. HUVE cells were grown in 24-well plates to a subconfluent state, serum-starved for 24 hours and treated with F12K medium containing 10% fetal bovine serum (FBS), 1 μCi/ml [^3H]-thymidine and 10 ng/ml basic Fibroblast Growth Factor (bFGF) (Gibco-BRL, Inc.) with various concentrations of Cyr61 and Fisp12 as indicated. […] Thymidine incorporation into the trichloroacetic acid-insoluble fraction was determined after 24 hour incubation. […]

NIH 3T3 fibroblasts = test: Thymidine incorporation (mitogen potentiation), NIH 3T3; assay type: cell-based, mouse; details: bFGF 15 ng/ml or PDGF-BB 30 ng/ml
Protocol: More specifically, NIH 3T3 fibroblast cells were plated on 24-well plates at 3×10^4 cells/well and grown in DMEM with 10% fetal bovine serum (Intergen Co., Purchase, N.Y.) for 3-4 days and incubated with medium containing 0.2% FBS for the following 48 hours. The following compounds, at the parenthetically noted final concentrations, were then added to the plated cells in fresh DMEM containing 0.2% fbs and [^3H]-thymidine (1 μCi/ml final concentration; ICN Biomedicals, Inc., Costa Mesa, Calif.): bFGF (15 ng/ml), PDGF-BB (30 ng/ml), and murine Cyr61 (0.5-5 μg/ml). These compounds were added to individual plates according to the following pattern: 1) no supplementation; 2) murine Cyr61; 3) bFGF; 4) murine Cyr61 and bFGF; 5) PDGF-BB; and 6) murine Cyr61 and PDGF. After 18-20 hours of incubation, cells were washed with PBS and fixed with 10% trichloroacetic acid. DNA was dissolved in 0.1 N NaOH and thymidine incorporation was determined. […] Without any supplements, 3T3 cells incorporated approximately 1.8×10^4 cpm of [^3H]-thymidine, in the presence or absence of Cyr61. […]
DNA synthesis for HUVE cells and NIH 3T3 fibroblasts was measured by thymidine incorporation as described previously (Kireeva et al., [1996]) with minor modifications. […] Thymidine incorporation into the trichloroacetic acid-insoluble fraction was determined after 24 hour incubation. […]

[1] = tested on: Human Microvascular Endothelial Cells; test: Endothelial cell migration, inverted modified Boyden chamber; assay type: cell-based; details: 0.01-10 μg/ml
Protocol: In an alternative in vitro assay for angiogenic activity, an assay for endothelial cell migration was developed. […] Primary Human Microvascular Endothelial Cells (HMVEC PO51, Clonetics, San Diego, Calif.) were maintained in DME with 10% donor calf serum (Flow Laboratories, McLean, Va.) and 100 μg/ml endothelial celi mitogen (Biomedical Technologies Inc., Stoughton, Mass.). The cells were used between passages 10 and 15. To measure migration, cells were starved for 24 hours in DME containing 0.1% BSA, harvested, resuspended in DME with 0.1% BSA, and plated at 1.75×10^4 cells/well on the lower surface of a gelatinized 0.5 μm filter (Nucleopore Corporation, Pleasanton. Calif.) in an inverted modified Boyden chamber. After 1-2 hours at 37° C., during which time the cells were allowed to adhere to the filter, the chamber was reverted to its normal position. […] Chambers were disassembled, membranes fixed and stained, and the number of cells that had migrated to the top of the filter in 3 high-powered fields was determined. […]
To allow comparison of experiments performed on different days, migration data is reported as the percent of maximum migration towards the positive control, calculated after subtraction of background migration observed in the presence of DME plus BSA. […] Detachment was detected by counting cells on the lower face of the membrane. […]

bFGF: Growth factor used as positive control [reference compound]
thymidine incorporation, baseline (HUVE cells; 0-0.1 ng/ml bFGF, presence or absence of Cyr61, 72 hours): approximately 4×10^2 cpm | thymidine incorporation, bFGF alone (HUVE cells; 1 ng/ml bFGF): 6×10^2 cpm | thymidine incorporation, bFGF alone (HUVE cells; 10 ng/ml bFGF): about 1.8×10^3 cpm | [3H]-thymidine incorporation, growth factor alone (NIH 3T3 fibroblasts): about 1.2×10^5 cpm | migrated cells per three high-powered microscope fields [1]: 92 cells
